Measured values: patent publication US20250051327A1, “MALT-1 MODULATORS” (EXSCIENTIA AI LIMITED, priority 2020, published 2025)

Molecular target: Recombinant human MALT-1 (amino acids 340-824) (Homo sapiens (Human), UniProt Q9UDY8)
Experiment: MALT-1 inhibition assay (fluorogenic substrate Ac-LRSR-Rh110-DP)
Format: biochemical
Conditions: recombinant human MALT-1, substrate Ac-LRSR-Rh110-DP
Experimental: MALT-1 paracaspase activity was measured using the fluorogenic substrate Ac-LRSR-Rh110-DP (purchased from Biosantan GmbH). […] The reaction was initiated by addition of substrate. Final concentrations of MALT-1 and substrate were 3 nM and 10 μM respectively. Reactions were incubated in the dark for 60 minutes at 25° C. […] Percent inhibition values were calculated from relative fluorescence units at different doses and fitted to a 4-parameter logistic curve to determine IC50 values (see Table 1).

Sequence of Recombinant human MALT-1 (amino acids 340-824) (Q9UDY8 340-824): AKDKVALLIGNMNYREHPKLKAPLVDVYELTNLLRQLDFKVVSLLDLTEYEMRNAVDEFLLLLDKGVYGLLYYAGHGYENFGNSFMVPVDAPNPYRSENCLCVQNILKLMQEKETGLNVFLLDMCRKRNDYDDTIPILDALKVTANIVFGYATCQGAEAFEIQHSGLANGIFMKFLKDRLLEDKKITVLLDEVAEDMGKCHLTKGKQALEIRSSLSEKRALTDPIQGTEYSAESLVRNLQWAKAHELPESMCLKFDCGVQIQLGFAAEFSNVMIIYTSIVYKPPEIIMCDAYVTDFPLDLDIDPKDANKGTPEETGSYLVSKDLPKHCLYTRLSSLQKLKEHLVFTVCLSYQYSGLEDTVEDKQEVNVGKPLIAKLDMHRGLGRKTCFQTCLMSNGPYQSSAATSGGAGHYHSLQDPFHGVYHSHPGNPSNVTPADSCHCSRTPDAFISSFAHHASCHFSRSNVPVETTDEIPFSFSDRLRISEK

Structure (SMILES)	IC50
CN(C(=O)[C@H](O)C1CCS(=O)(=O)CC1)[C@@H](c1ccc(N2CCCc3c2cnc2cc(Cl)nn32)cc1)C(F)(F)F (relative stereo) [CPD0073972, (2rel-R)—N-[(1S)-1-(4-{4-chloro-2,3,7,10-tetraazatricyclo[7.4.0.0^2,6]trideca-1(9),3,5,7-tetraen-10-yl}phenyl)-2,2,2-trifluoroethyl]-2-(1,1-dioxo-1λ^e-thian-4-yl)-2-hydroxy-N-methylacetamide]	0.109 µM
CN(C(=O)[C@H]1CCN(C(=O)C2(O)CC2)C1)[C@@H](c1ccc(N2CCCc3c2cnc2cc(Cl)nn32)cc1)C(F)(F)F (relative stereo) [CPD0073979, (3rel-S)-N-[(1S)-1-[4-(4-chloro-2,3,7,10-tetrazatricyclo[7.4.0.0^2,6]trideca-1(9),3,5,7-tetraen-10-yl)phenyl]-2,2,2-trifluoro-ethyl]-1-(1-hydroxycyclopropanecarbonyl)-N-methyl-pyrrolidine-3-carboxamide]	0.075 µM
C[C@@H]1CCc2c(cnc3cc(Cl)nn23)N1c1ccc([C@H](N(C)C(=O)[C@H]2CC[S@](=N)(=O)CC2)C(F)(F)F)cc1 (relative stereo) [CPD0074551, (1rel r 4rel r) N-[(1S)-1-[4-[(11-rel R)-4-chloro-11-methyl-2,3,7,10-tetrazatricyclo[7.4.0.0^2,6]trideca-1(9),3,5,7-tetraen-10-yl]phenyl]-2,2,2-trifluoro-ethyl]-1-imino-N-methyl-1-oxo-thiane-4-carboxamide]	0.057 µM
C[C@@H]1CCc2c(cnc3cc(Cl)nn23)N1c1ccc([C@H](N(C)C(=O)[C@H]2CC[S@@](=N)(=O)CC2)C(F)(F)F)cc1 (relative stereo) [CPD0074552, (1rel s 4rel s) N-[(1S)-1-[4-[(11-rel R)-4-chloro-11-methyl-2,3,7,10-tetrazatricyclo[7.4.0.0^2,6]trideca-1(9),3,5,7-tetraen-10-yl]phenyl]-2,2,2-trifluoro-ethyl]-1-imino-N-methyl-1-oxo-thiane-4-carboxamide]	0.078 µM
C[C@H]1CCc2c(cnc3cc(Cl)nn23)N1c1ccc([C@H](N(C)C(=O)[C@H]2CC[S@](=N)(=O)CC2)C(F)(F)F)cc1 (relative stereo) [CPD0074564, (1rel r 4rel r) N-[(1S)-1-[4-[(11-rel S)-4-chloro-11-methyl-2,3,7,10-tetrazatricyclo[7.4.0.0^2,6]trideca-1(9),3,5,7-tetraen-10-yl]phenyl]-2,2,2-trifluoro-ethyl]-1-imino-N-methyl-1-oxo-thiane-4-carboxamide]	0.248 µM
C[C@H]1CCc2c(cnc3cc(Cl)nn23)N1c1ccc([C@H](N(C)C(=O)[C@H]2CC[S@@](=N)(=O)CC2)C(F)(F)F)cc1 (relative stereo) [CPD0074565, (1rel s 4rel s) N-[(1S)-1-[4-[(11-rel S)-4-chloro-11-methyl-2,3,7,10-tetrazatricyclo[7.4.0.0^2,6]trideca-1(9),3,5,7-tetraen-10-yl]phenyl]-2,2,2-trifluoro-ethyl]-1-imino-N-methyl-1-oxo-thiane-4-carboxamide]	0.377 µM
CN1C[C@@H](C(=O)N(C)[C@@H](c2ccc(N3CCCc4c3cnc3cc(Cl)nn43)cc2)C(F)(F)F)NC1=O (relative stereo) [CPD0075574, (4rel S)-N-[(1S)-1-[4-(4-chloro-2,3,7,10-tetrazatricyclo[7.4.0.0^2,6]trideca-1(9),3,5,7-tetraen-10-yl)phenyl]-2,2,2-trifluoro-ethyl]-N,1-dimethyl-2-oxo-imidazolidine-4-carboxamide]	0.08 µM
CN1C[C@H](C(=O)N(C)[C@@H](c2ccc(N3CCCc4c3cnc3cc(Cl)nn43)cc2)C(F)(F)F)NC1=O (relative stereo) [CPD0075577]	0.042 µM
CN(C(=O)[C@@H]1CNC(=O)N1)[C@@H](c1ccc(N2CCCc3c2cnc2cc(Cl)nn32)cc1)C(F)(F)F (relative stereo) [CPD0075578, (4rel S)-N-[(1S)-1-[4-(4-chloro-2,3,7,10-tetrazatricyclo[7.4.0.0^2,6]trideca-1(9),3,5,7-tetraen-10-yl)phenyl]-2,2,2-trifluoro-ethyl]-N-methyl-2-oxo-imidazolidine-4-carboxamide]	0.051 µM
CO[C@@H](C)c1c(Nc2ccc([C@H](N(C)C(=O)[C@H]3CC[S@](=N)(=O)CC3)C(F)(F)F)cc2)cnn2cc(Cl)nc12 (relative stereo) [CPD0082473, (1rel-r, 4rel-r) N-[(1S)-1-[4-[[2-chloro-8-[(1 S)-1-methoxyethyl]imidazo[1,2-b]pyridazin-7-yl]amino]phenyl]-2,2,2-trifluoro-ethyl]-1-imino-N-methyl-1-oxo-thiane-4-carboxamide]	0.052 µM
CO[C@@H](C)c1c(Nc2ccc([C@H](N(C)C(=O)[C@H]3CC[S@@](=N)(=O)CC3)C(F)(F)F)cc2)cnn2cc(Cl)nc12 (relative stereo) [CPD0082474, (1rel-s,4rel-s) N-[(1 S)-1-[4-[[2-chloro-8-[(1S)-1-methoxyethyl]imidazo[1,2-b]pyridazin-7-yl]amino]phenyl]-2,2,2-trifluoro-ethyl]-1-imino-N-methyl-1-oxo-thiane-4-carboxamide]	0.05 µM
COc1ccc2ncc(Nc3ccc([C@H](N(C)C(=O)C4CCS(=O)(=O)CC4)C(F)(F)F)cc3)c([C@@H](C)O)c2n1 (relative stereo) [CPD0084256, N-methyl-1,1-dioxo-N-[(1S)-2,2,2-trifluoro-1-[4-[[4-[(1rel R)-1-hydroxyethyl]-6-methoxy-1,5-naphthyridin-3-yl]amino]phenyl]ethyl]thiane-4-carboxamide]	0.038 µM
COc1ccc2ncc(Nc3ccc([C@H](N(C)C(=O)C4CCS(=O)(=O)CC4)C(F)(F)F)cc3)c([C@H](C)N)c2n1 (relative stereo) [CPD0084307, N-[(1 S)-1-[4-[[4-[(1rel S)-1-aminoethyl]-6-methoxy-1,5-naphthyridin-3-yl]amino]phenyl]-2,2,2-trifluoroo-ethyl]-N-methyl-1,1-dioxo-thiane-4-carboxamide]	0.124 µM
CN(C(=O)[C@@H]1CNC(=O)O1)[C@@H](c1ccc(N2CCCc3c2cnc2cc(Cl)nn32)cc1)C(F)(F)F (single isomer, unassigned) [CPD0075573]	0.197 µM
CN(C(=O)C1CNC(=O)N1)[C@@H](c1ccc(N2CCCc3c2cnc2cc(Cl)nn32)cc1)C(F)(F)F (stereo in doubt) [CPD0075579, (4rel R)-N-[(1S)-1-[4-(4-chloro-2,3,7,10-tetrazatricyclo[7.4.0.0^2,6]trideca-1(9),3,5,7-tetraen-10-yl)phenyl]-2,2,2-trifluoro-ethyl]-N-methyl-2-oxo-imidazolidine-4-carboxamide]	0.044 µM
COc1ccc2ncc(Nc3ccc([C@@H](N(C)C(=O)[C@H]4CC[S@@](=N)(=O)CC4)C(F)(F)F)cc3)c([C@@H](C)OC)c2n1 (stereo in doubt) [CPD0077188, (1 rel-r,4rel-r)-1-imino-N-methyl-1-oxo-N-[(1R)-2,2,2-trifluoro-1-[4-({6-methoxy-4-[(1 rel-R)-1-methoxyethyl]-1,5-naphthyridin-3-yl}amino)phenyl]ethyl]-1λ^6-thiane-4-carboxamide]	0.255 µM
